Consider six molecules from patent US20100055113A1, “CELLULAR RECEPTOR FOR ANTIPROLIFERATIVE FACTOR” (The University of Maryland, Baltimore, priority 2006, published 2010).

Ends that are not written are not given here. glycan = not defined here

Assay [1] has as its system CKAP4/p63. Description: Western blot of CKAP4/p63 protein expression after siRNA electroporation. In kind it is cell-based, human. The note with it: normal bladder epithelial cells, electroporation with siRNA; FIG. 5A. On the procedure: Solubilized high affinity APF-binding bladder epithelial cell proteins were prepared as described above. Solubilized bladder epithelial cell membrane proteins were prepared by rinsing cells in the culture flasks with ice cold PBS, then scraping the cells into ice-cold extraction buffer (20 mM Tris/HCL, pH 7.4, containing 50 μg/ml PMSF, 2 μg/ml aprotinin, 100 μM tosyl-lysine-chloromethyl-ketone, 1 μM pepstatin A, and 1 μg/ml diisopropylfluorophosphate). The cell slurry was then vortexed until homogeneous, and centrifuged at 4° C. for 10 minutes at 14,000 rpm. Supernatant was removed, and the pelleted membrane fraction was washed once with ice cold extraction buffer, repelleted, and proteins were solubilized using ice cold extraction buffer containing 1% Triton X-100. Solubilized total cell proteins were extracted into ice cold RIPA buffer containing 1.0% NP40, as previously described (Keay et al., 2003). Protein concentration of solubilized protein samples was measured using a Folin reagent-based protein assay kit (Bio-Rad). […]

In assay [2] the target is T1, CKAP4/p63 (Homo sapiens, UniProt Q07065).
T1 construct: endogenous in cells; host or cells: explanted primary normal human bladder epithelial cells
T1 sequence (Q07065 1-602): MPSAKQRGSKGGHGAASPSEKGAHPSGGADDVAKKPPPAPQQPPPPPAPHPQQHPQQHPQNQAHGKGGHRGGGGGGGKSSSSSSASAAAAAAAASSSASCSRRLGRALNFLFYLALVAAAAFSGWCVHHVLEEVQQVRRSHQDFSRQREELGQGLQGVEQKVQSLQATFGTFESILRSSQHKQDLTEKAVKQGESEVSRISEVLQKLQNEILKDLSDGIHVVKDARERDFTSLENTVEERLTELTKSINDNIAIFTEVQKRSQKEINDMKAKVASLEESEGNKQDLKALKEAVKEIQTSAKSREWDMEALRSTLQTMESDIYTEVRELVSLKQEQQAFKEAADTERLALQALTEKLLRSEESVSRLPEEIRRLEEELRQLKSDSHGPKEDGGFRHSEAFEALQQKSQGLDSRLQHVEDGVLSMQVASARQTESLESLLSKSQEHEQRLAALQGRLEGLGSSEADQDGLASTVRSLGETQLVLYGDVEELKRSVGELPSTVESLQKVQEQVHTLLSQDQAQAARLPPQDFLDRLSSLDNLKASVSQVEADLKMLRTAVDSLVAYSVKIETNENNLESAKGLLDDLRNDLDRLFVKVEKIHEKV
Description: Sensitivity of siRNA-electroporated normal bladder epithelial cells to APF (thymidine incorporation). The settings on record: electroporation with siRNA, FIG. 5B. In kind it is cell-based. On the procedure: Cell proliferation was measured by ^3H-thymidine incorporation into explanted normal human bladder epithelial cells, as previously described (Keay et al., 2004; Keay et al., 1996). Briefly, purified lyophilized synthetic APF was resuspended in acetonitrile/distilled water (1:1), diluted in serum-free MEM (containing only glutamine and antibiotics/antimycotics), and applied to the cells; cell controls received acetonitrile/distilled water diluted in serum-free MEM alone. Cells were then incubated at 37° C. in a 5% CO2 atmosphere for 48 hours. The cell contents harvested and methanol-fixed onto glass fiber filter paper, and the amount of radioactivity incorporated determined. Significant inhibition of 3H-thymidine incorporation was defined as a mean decrease in counts per minute of greater than 2 standard deviations from the mean of control cells for each plate. Double stranded siRNA corresponding to nucleotides 594-616 ([NT] sense strand; SEQ ID NO:5) of CKAP4/p63 (NM-006825) and a scrambled double stranded negative control siRNA ([NT] sense strand; SEQ ID NO:13) were prepared by preincubating single-stranded sense and anti-sense strands prepared with double A overhangs in serum-free MEM medium at 37° C. for 1 hour. […]
On the technique in general: Dividing cells build labelled thymidine or BrdU into new DNA.

The test system of assay [3] is normal human bladder epithelial cells. The assay can be described thus: 3H-thymidine incorporation cell proliferation assay. In kind it is cell-based. As to the method:
Cell proliferation was measured by ^3H-thymidine incorporation into explanted normal human bladder epithelial cells, as previously described (Keay et al., 2004; Keay et al., 1996). Briefly, purified lyophilized synthetic APF was resuspended in acetonitrile/distilled water (1:1), diluted in serum-free MEM (containing only glutamine and antibiotics/antimycotics), and applied to the cells; cell controls received acetonitrile/distilled water diluted in serum-free MEM alone. Cells were then incubated at 37° C. in a 5% CO2 atmosphere for 48 hours. The cell contents harvested and methanol-fixed onto glass fiber filter paper, and the amount of radioactivity incorporated determined. Significant inhibition of 3H-thymidine incorporation was defined as a mean decrease in counts per minute of greater than 2 standard deviations from the mean of control cells for each plate.

The test system is the same in assay [4]. The note with it: bladder epithelial cell proliferation; background statement; cited from earlier work.
The target in assay [5] is T2, cytoskeleton-associated protein 4/p63 (CKAP4/p63) (human, UniProt Q07065 1-602).
T2 sequence: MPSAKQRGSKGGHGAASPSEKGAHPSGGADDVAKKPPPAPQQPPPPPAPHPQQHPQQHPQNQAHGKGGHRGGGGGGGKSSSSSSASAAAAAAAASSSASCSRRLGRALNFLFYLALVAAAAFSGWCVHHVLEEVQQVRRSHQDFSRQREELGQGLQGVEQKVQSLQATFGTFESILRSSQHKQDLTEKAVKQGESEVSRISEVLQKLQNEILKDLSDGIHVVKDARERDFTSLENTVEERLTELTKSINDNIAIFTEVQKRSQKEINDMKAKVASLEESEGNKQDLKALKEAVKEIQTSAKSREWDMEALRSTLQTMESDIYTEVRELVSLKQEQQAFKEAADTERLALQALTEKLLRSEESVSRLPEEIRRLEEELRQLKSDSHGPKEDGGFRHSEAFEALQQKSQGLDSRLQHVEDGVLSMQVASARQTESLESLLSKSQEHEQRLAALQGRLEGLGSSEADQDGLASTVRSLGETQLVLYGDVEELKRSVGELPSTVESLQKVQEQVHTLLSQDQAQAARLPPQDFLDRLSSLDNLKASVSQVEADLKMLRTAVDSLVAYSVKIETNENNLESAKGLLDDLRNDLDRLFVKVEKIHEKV
Description: cell-based or functional assay.

As for “5′-AACUUUUGAGUCCAUCUUGAGAA-3′ sense strand [double-stranded siRNA for CKAP4/p63]”, the “CKAP4/p63 protein expression relative to beta actin” value in the assay with CKAP4/p63 [1] is given as “decreased protein expression of CKAP4/p63 relative to beta actin”. Further, the “decrease in sensitivity of the cells to APF” value at CKAP4/p63 [2] is recorded as “approximately one thousand-fold”.
For “5′-AAUUCUGUAUGCUA CCUGUAGAA-3′ sense strand [scrambled siRNA, reference compound]” the same measures were “little or no change” and “no decrease in sensitivity to APF”.
For the molecule “biotinylated synthetic APF: APF biotinylated on the C-terminal lysine residue, carrying Galβ1-3GalNAcα-O-threonine (TVPAAVVVAK)”, the “antiproliferative activity as compared to the parent synthetic GalNAcβ1-3Gal-APF congener” value in assay [3] (primary normal bladder epithelial cells) is “approximately 80%”.
On to “rhodamine-labeled APF: synthetic APF glycopeptide with C-terminal lysine labelled with 5(6)-Rhodamine B isothiocyanate (TVPAAVVVAK)”, for which the “antiproliferative activity relative to synthetic, unlabeled APF” value in assay [3] (normal bladder epithelial cells) is reported as “approximately 85%”.
For “sialoglycopeptide inhibitor of bladder epithelial cell proliferation; nonapeptide TVPAAVVVA (SEQ ID NO:1) glycosylated on N-terminal threonine [APF, Sialic acid-galactose-N-acetylgalactosamine-threonine-valine-proline-alanine-alanine-valine-valine-valine-alanine]”, in assay [4], the “potency of APF (EC50)” value is listed as “picomolar range”.
As for T(glycan)VPAAVVVA (reading uncertain; also: exact glycoform not given here) [synthetic APF (antiproliferative factor)], the “sensitivity of the cells to APF after siRNA knockdown of CKAP4/p63 (3H-thymidine incorporation)” value in assay [5] is about 1000 fold.
